Laboratory results as given in patent US20220370502A1, “Active Ingredient of an Erythrocytes-containing Composition” (priority 2020, published 2022).
Values belong to the compound of their own block, whether it stands above or below them.

How the values were obtained:
Assay type in all cases: cell-based
[1] = test system: human erythrocytes; assay: Annexin-V-FLUOS binding (eryptosis) by flow cytometry
Protocol: (§1) Single treatment: Erythrocytes were treated with costunolide or chelerythrine for 24 hours (see FIGS. 2, 4, 5 and 6). Double treatments: Erythrocytes were first pre-treated with chelerythrine for two hours, followed by treatment with costunolide for further 24 hours (see FIGS. 3 and 7). Thus, the incubation time for chelerythrine-treated erythrocytes lasted 26 h and 24 h for costunolide-treated erythrocytes. In single (0.2% v/v DMSO) and double treatments (0.4% v/v DMSO), DMSO-treated cells served as negative controls. […]
(§2) At the end of the incubation period, 0.1 ml erythrocytes (3×10^6) were added in 500 μl annexin wash buffer, mixed thoroughly and pelleted by centrifuging. […] After an incubation period of 20 minutes in the dark at room temperature, 200 μl annexin binding buffer was added to each sample, thoroughly vortexed to obtain single cell suspensions, and analyzed by flow cytometry on a FACS Calibur (Becton Dickinson, Heidelberg, Germany). In the FL1-channel, binding of annexin-V-FLUOS (eryptosis) was measured. Erythrocyte volume was determined by forward scatter (FSC). To this end, corresponding erythrocytes suspensions were immediately analysed by flow cytometry.

[2] = test system: human erythrocytes; assay: Erythrocyte volume by forward scatter (cell shrinkage); details: single treatment with increasing concentrations of costunolide, 24 h, FIG. 2
Protocol: as §1, §2

[3] = test system: human erythrocytes; assay: Hemolysis measurement (hemoglobin in supernatant, 405 nm); details: costunolide treatment, 24 h, FIG. 2C
Protocol: After 24 hours treatment of erythrocytes (0.6% Hct) with costunolide and/or chelerythrine, hemolysis was determined. 600 μl cell suspension form each condition containing 3.6×10^6 erythrocytes centrifuged for 8 min at 420×g, 4° C., and the supernatants were harvested. As a measure of hemolysis, the hemoglobin (Hb) concentration of the supernatants was determined photometrically at 405 nm. The absorption of the supernatant of DMSO-treated erythrocytes lysed in 600 μl distilled water was defined as 100%. From this the standard curve was made by serial dilution.

[4] = test system: human erythrocytes; assay: Intracellular GSH and GSSG analysis; details: costunolide 1-80 μM, 24 h, FIG. 5
Protocol: For single (FIG. 5) or double treatments (FIG. 7), pure RBCs (0.6% Hct) were suspended in 30 ml Ringer solution and treated with varying concentrations of costunolide (1-80 μM) or different concentrations of chelerythrine (1-10 μM) and a fixed costunolide concentration (80 μM). DMSO-treated RBCs served as negative control. After incubation, 58 μl from a 310 mM NEM stock was given to each condition, gently mixed for 1 min and then centrifuged 10 min long at 10 C and 228×g. Supernatants were removed and the cell pellets were stored at −20° C. until analyses. GSH and GSSG were measured on the clear supernatant obtained by treatment of 0.1 ml RBCs with 0.12 ml 15% (w/v) trichloroacetic acid. […] GSSG was measured at the spectrophotometer by the GSH recycling method with slight modifications (Giustarini D. et al. 2013; Nat. Protoc. 8: 1660-1669, “Analysis of GSH and GSSG after derivatization with N-ethylmaleimide”). One aliquot of RBCs ([…]) was hemolyzed by a 1:200 dilution with H2O for haemoglobin determination (Di lorio E.E. 1981; Methods Enzymol. 76: 57-72 “Preparation of derivatives of ferrous and ferric hemoglobin”). The HPLC analyses were carried out by an Agilent series 1100 instrument. The spectrophotometric analyses were performed by a Jasco V-530 instrument.

[5] = molecular target: T1, glucose-6-phosphate dehydrogenase (G6PDH) (Homo sapiens, UniProt P11413); assay: Determination of G6PDH activity in erythrocyte lysates; details: costunolide treatment of erythrocytes, 24 h, FIG. 6
T1 construct: endogenous in cells; host or cells: human erythrocytes (RBCs), hemolysate
T1 sequence (P11413 whole entry): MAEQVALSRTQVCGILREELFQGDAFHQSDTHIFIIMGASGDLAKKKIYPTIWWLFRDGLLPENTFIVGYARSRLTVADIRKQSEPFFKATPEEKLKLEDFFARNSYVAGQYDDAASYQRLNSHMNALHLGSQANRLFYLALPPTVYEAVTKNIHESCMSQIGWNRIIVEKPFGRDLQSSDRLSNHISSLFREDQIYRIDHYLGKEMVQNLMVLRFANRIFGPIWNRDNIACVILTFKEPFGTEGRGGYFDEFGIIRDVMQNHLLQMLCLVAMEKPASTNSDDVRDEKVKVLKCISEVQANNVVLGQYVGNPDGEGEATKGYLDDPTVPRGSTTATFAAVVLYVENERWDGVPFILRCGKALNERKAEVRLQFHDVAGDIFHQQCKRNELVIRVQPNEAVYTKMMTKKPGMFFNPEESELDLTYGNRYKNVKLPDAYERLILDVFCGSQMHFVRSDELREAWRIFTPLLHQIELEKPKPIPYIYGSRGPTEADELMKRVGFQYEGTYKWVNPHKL
Protocol: Pure RBCs (0.6% Hct) were incubated in 20 ml Ringer solution and treated with DMSO or different concentrations of costunolide. 24 hrs later, cell suspensions were centrifuged at 10° C., 228×g. Supernatants were removed and the cell pellets were stored at −80° C. until analyses. G6PDH activity was measured in lysates according to methods recommended by the International Committee for Standardization in Hematology (Di lorio E.E. 1981; l.c.). The activity was expressed in units per grams of hemoglobin (U/g Hb) (Ghashghaeinia M. et al. 2012; l.c.). RBC pellet was diluted 1:20 with distilled water. After 10 min (for GR 20 min) incubation at 37° C., the reactions were started by adding substrate or hemolysate and mixed properly. Then, 200 μL of each reaction mixture was transferred into a 96-well plate and changes in absorbance were recorded at 340 nm at 1 min intervals for 20 min at 37° C. (Infinite 200 Nanoquant, Tecan). All assays were run in triplicates and specific enzyme activity was calculated using the Lambert-Beer law. Activity =(ΔA×V/(ϵ×l×t))×f.
0.1 M Tris-HCl/0.5 mM EDTA, pH=8.0; 0.01 M MgCl2; 0.2 mM NADP^+; 20 μL of 1:20 hemolysate; 10 min incubation at 37° C.; start by addition of 0.6 mM 6PGA+0.6 mM G6P

SMILES: COc1ccc2c(c[n+](C)c3c4cc5c(cc4ccc23)OCO5)c1OC [chelerythrine, 1,2-Dimethoxy-12-methyl[1,3]benzodioxolo[5,6-c]phenanthridinium]
basal eryptosis rate ([1]; without costunolide, DMSO control 1.69%, FIG. 3A): 1.1%

eryptosis rate ([1]; single treatment with increasing concentrations of costunolide, 24 h, FIG. 2): increased rates of eryptosis
SMILES: C=C1C(=O)O[C@@H]2/C=C(\C)CC/C=C(\C)CC[C@@H]12 [costunolide]
cell shrinkage [2]: increased rates of eryptosis and cell shrinkage
hemolysis [3]: not associated with hemolysis
GSH (reduced glutathione) level [4]: deplete both the reduced (GSH) and the oxidized (GSSG) form of glutathione in a concentration-dependent manner
GSSG (oxidized glutathione) level [4]: deplete both the reduced (GSH) and the oxidized (GSSG) form of glutathione in a concentration-dependent manner
G6PDH activity [5]: inhibit G6PDH activity completely
